From paper PMC5940854, “Nitrothiophene carboxamides, a novel narrow spectrum antibacterial series: Mechanism of action and Efficacy” (Scientific Reports, 2018)
Values after ≈ are worked out from the molar mass of the structure shown. Where two headings read alike, the source gives them in different places.

Columns and labels:
[1] = system: E. coli ∆nfsAB & ∆acrB+nfnB; set-up: unit not given beside the values
Protocol: (§1) The inoculum used for all the experiments is derived from a single seed lot that is maintained as glycerol stocks at −80 °C and are sub cultured on LB plate for isolated colonies. Single colony of each strain is grown in M9 medium. All test compound stocks and dilutions are prepared in DMSO. Serial two-fold dilutions of compounds are prepared separately, with the concentrations ranging from 2 mg/mL to 0.015 mg/mL. To 150 µl (3–7 × 10^5 CFU/ml) of bacterial culture in 96 well microtitre plates, 3 μL compound from each of the dilutions is added to respective wells to obtain final concentrations ranging from 40 µg/mL to 0.3 µg/mL of the test compounds. Media control, culture control and appropriate reference drug controls are included. […] Growth is monitored by checking absorbance at 600 nm (A600). […] The samples from MIC and above concentrations are plated for MBC (Minimum Bactericidal Concentration). The samples are diluted 1:10 and plated on LB agar plates. […] The killing kinetics is determined by enumerating survivors at various time points following compound exposure. E. coli cells (~10^7 CFU/ml; A600 of 0.1) are treated with various concentrations (40 µg/mL to 0.3 µg/mL) of compounds in a 96-well microtitre plate. At various time intervals (0 to 8 h), 30 μl volumes of treated cultures are serially diluted and plated on LB agar plates. […] Data is expressed as the log10 CFU for each drug treatment.

[2] = system: E. coli clinical isolates; test: MIC on panel of E. coli clinical isolates; format: cell-based
[3] = system: wild-type E. coli CGSC#7636 (BW25113); test: MIC, wild-type E. coli; format: cell-based; conditions: Escherichia coli, read-out: MIC WT
Protocol: as §1

NfsB = molecular target: T1, NfsB (Escherichia coli, UniProt P38489); test: Nitroreductase activity assay, NfsB; format: biochemical, E. coli; conditions: 20 μM compound, 40 μM NADH, 70 nM NfsB; slope of initial velocity
T1 construct: His-tag; made in house; host or cells: E. coli BL21(DE3), pET28a (pET-nfsB)
Protocol: Enzyme reducing each of the substrates are measured by monitoring the concomitant oxidation of NADPH by NfsA and NADH by NfsB in a fluorescence based assay. The reduction in fluorescence due to the NADH oxidation (excitation 350 nm, emission 460 nm) and NADPH oxidation (excitation 340 nm, emission 485 nm) is recorded using a TECAN Infinite M200Pro spectrophotometer, in half area solid black microtiter plates. This change in fluorescence directly corelates to the reduction of the nitro-compounds in the reaction. The NfsA assays is performed by initiating the reactions with 40 μM NADPH and 10 nM NfsA in 50 mM Tris-HCl (pH 7.4), 5 mM EDTA against 20 μM substrate (5 μl of compounds/substrate dissolved in 100% DMSO) in a total reaction volume of 100 μl at 25 °C. Similarly, the NfsB assay is also performed by initiating the reactions with 40 μM NADH and 70 nM NfsB in 50 mM Tris-HCl (pH 7.4), 5 mM EDTA against 20 μM substrate in a total reaction volume of 100 μl. […] All reactions are performed in replicates of two or more and the fluorescence measurements are made at 10 second intervals for 5–10 minutes.
Low solubility of the compounds/substrates under the NfsA and NfsB assay conditions precluded determination of their Km. […] The relative fluorescence units (RFU) obtained due to NADPH (excitation 340 nm, emission 485 nm) or NADH (excitation 350 nm, emission 460 nm) oxidation of the first 90 sec reaction is used to compute the slopes using linear regression analysis on GraphPad Prism. Appropriate blank reactions are included to account for background fluorescence/quenching from each of the components such as DMSO, the compound itself and auto-oxidation of NADPH or NADH. Activity of NfsB with a known substrate such as nitrofurantoin is used as a benchmark to plot the relative activities with all the test compounds.

E. coli ∆acrB JW0451-2 = test: MIC, E. coli ∆acrB; format: cell-based; set-up: MIC ∆acrB: unit not given beside the values
Protocol: as §1

T1 sequence (P38489 whole entry): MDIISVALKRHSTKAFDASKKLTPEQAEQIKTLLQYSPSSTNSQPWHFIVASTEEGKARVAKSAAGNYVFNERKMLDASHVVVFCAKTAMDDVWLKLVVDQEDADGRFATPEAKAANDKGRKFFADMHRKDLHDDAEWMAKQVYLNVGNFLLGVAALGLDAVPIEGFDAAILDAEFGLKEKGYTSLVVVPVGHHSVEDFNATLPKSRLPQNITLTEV

In the case of `O=C(Nc1nc(-c2ccc(F)cc2F)cs1)c1ccc([N+](=O)[O-])s1` [compound 12, N-(4-(2,4-difluorophenyl)thiazol-2-yl)-5-nitrothiophene-2-carboxamide], the “MIC ∆nfsAB & ∆acrB+nfnB” value [1] was 0.3, the “MIC Range” value ([2]; 75 E.coli clinical isolates) was 0.06 to 40 µg/mL and the MIC50 ([2]; Escherichia coli, 75 E.coli clinical isolates, 50% clinical isolates) was 2.5 µg/mL (≈ 6.81 µM). It also gave an MIC90 ([2]; Escherichia coli, 75 E.coli clinical isolates, 90% clinical isolates) of 10 µg/mL (≈ 27.2 µM), an MIC ([2]; strain SEC001) of 4 µg/mL (≈ 10.9 µM) and an MIC ([2]; strain SEC002) of 4 µg/mL (≈ 10.9 µM). It also gave an MIC ([2]; strain SEC003) of 4 µg/mL (≈ 10.9 µM), an MIC ([2]; strain SEC004) of 32 µg/mL (≈ 87.1 µM) and an MIC ([2]; strain SEC005) of 4 µg/mL (≈ 10.9 µM). It also gave an MIC ([2]; strain SEC006) of 4 µg/mL (≈ 10.9 µM), an MIC ([2]; strain SEC007) of 2 µg/mL (≈ 5.44 µM) and an MIC ([2]; strain SEC008) of 32 µg/mL (≈ 87.1 µM). The MIC ([2]; strain SEC011) was 2 µg/mL (≈ 5.44 µM), the MIC ([2]; strain SEC012) was 1 µg/mL (≈ 2.72 µM) and the MIC ([2]; strain SEC013) was 32 µg/mL (≈ 87.1 µM). It also gave an MIC ([2]; strain SEC014) of 2 µg/mL (≈ 5.44 µM), an MIC ([2]; strain SEC015) of 32 µg/mL (≈ 87.1 µM) and an MIC ([2]; strain SEC016) of 2 µg/mL (≈ 5.44 µM). The MIC ([2]; strain SEC017) was 0.06 µg/mL (≈ 0.163 µM), the MIC ([2]; strain SEC018) was 2 µg/mL (≈ 5.44 µM) and the MIC ([2]; strain SEC019) was 2 µg/mL (≈ 5.44 µM). The MIC ([2]; strain SEC020) was 32 µg/mL (≈ 87.1 µM), the MIC ([2]; strain SEC021) was 1 µg/mL (≈ 2.72 µM) and the MIC ([2]; strain SEC022) was 2 µg/mL (≈ 5.44 µM). It also gave an MIC ([2]; strain SEC023) of 32 µg/mL (≈ 87.1 µM), an MIC ([2]; strain SEC024) of 2 µg/mL (≈ 5.44 µM) and an MIC ([2]; strain SEC025) of 2 µg/mL (≈ 5.44 µM). For the same compound, the MIC ([2]; strain SEC026) was 2 µg/mL (≈ 5.44 µM), the MIC ([2]; strain SEC028) was 1 µg/mL (≈ 2.72 µM) and the MIC ([2]; strain SEC029) was 2 µg/mL (≈ 5.44 µM). For the same compound, the MIC ([2]; strain SEC031) was 2 µg/mL (≈ 5.44 µM), the MIC ([2]; strain SEC032) was 4 µg/mL (≈ 10.9 µM) and the MIC ([2]; strain SEC033) was 2 µg/mL (≈ 5.44 µM). For the same compound, the MIC ([2]; strain SEC034) was 2 µg/mL (≈ 5.44 µM), the MIC ([2]; strain SEC035) was 2 µg/mL (≈ 5.44 µM) and the MIC ([2]; strain SEC036) was 32 µg/mL (≈ 87.1 µM). It also gave an MIC ([2]; strain SEC037) of 1 µg/mL (≈ 2.72 µM), an MIC ([2]; strain SEC038) of 2 µg/mL (≈ 5.44 µM) and an MIC ([2]; strain SEC039) of 2 µg/mL (≈ 5.44 µM). For the same compound, the MIC ([2]; strain SEC040) was 2 µg/mL (≈ 5.44 µM), the MIC ([2]; strain SEC041) was 2 µg/mL (≈ 5.44 µM) and the MIC ([2]; strain SEC042) was 4 µg/mL (≈ 10.9 µM). It also gave an MIC ([2]; strain SEC043) of 2 µg/mL (≈ 5.44 µM), an MIC ([2]; strain SEC044) of 32 µg/mL (≈ 87.1 µM) and an MIC ([2]; strain SEC045) of 2 µg/mL (≈ 5.44 µM). The MIC ([2]; strain SEC046) was 2 µg/mL (≈ 5.44 µM), the MIC ([2]; strain SEC047) was 2 µg/mL (≈ 5.44 µM) and the MIC ([2]; strain SEC048) was 32 µg/mL (≈ 87.1 µM). For the same compound, the MIC ([2]; strain SEC049) was 32 µg/mL (≈ 87.1 µM), the MIC ([2]; strain SEC050) was 4 µg/mL (≈ 10.9 µM) and the MIC ([2]; strain SEC051) was 4 µg/mL (≈ 10.9 µM). It also gave an MIC ([2]; strain SEC052) of 1 µg/mL (≈ 2.72 µM), an MIC ([2]; strain SEC053) of 2 µg/mL (≈ 5.44 µM) and an MIC ([2]; strain SEC054) of 2 µg/mL (≈ 5.44 µM). The MIC ([2]; strain SEC055) was 2 µg/mL (≈ 5.44 µM), the MIC ([2]; strain SEC057) was 4 µg/mL (≈ 10.9 µM) and the MIC ([2]; strain SEC058) was 4 µg/mL (≈ 10.9 µM). The MIC ([2]; strain SEC059) was 2 µg/mL (≈ 5.44 µM), the MIC ([2]; strain SEC060) was 2 µg/mL (≈ 5.44 µM) and the MIC ([2]; strain SEC061) was 2 µg/mL (≈ 5.44 µM). For the same compound, the MIC ([2]; strain SEC062) was 1 µg/mL (≈ 2.72 µM), the MIC ([2]; strain SEC063) was 2 µg/mL (≈ 5.44 µM) and the MIC ([2]; strain SEC064) was 4 µg/mL (≈ 10.9 µM). For the same compound, the MIC ([2]; strain SEC065) was 2 µg/mL (≈ 5.44 µM), the MIC ([2]; strain SEC067) was 2 µg/mL (≈ 5.44 µM) and the MIC ([2]; strain SEC068) was 4 µg/mL (≈ 10.9 µM). It also gave an MIC ([2]; strain SEC069) of 4 µg/mL (≈ 10.9 µM), an MIC ([2]; strain SEC070) of 4 µg/mL (≈ 10.9 µM) and an MIC ([2]; strain SEC071) of 2 µg/mL (≈ 5.44 µM). For the same compound, the MIC ([2]; strain SEC072) was 2 µg/mL (≈ 5.44 µM), the MIC ([2]; strain SEC073) was 4 µg/mL (≈ 10.9 µM) and the MIC ([2]; strain SEC074) was 2 µg/mL (≈ 5.44 µM). For the same compound, the MIC ([2]; strain SEC075) was 4 µg/mL (≈ 10.9 µM), the MIC ([2]; strain SEC076) was 2 µg/mL (≈ 5.44 µM) and the MIC ([2]; strain SEC077) was 2 µg/mL (≈ 5.44 µM). It also gave an MIC ([2]; strain SEC078) of 8 µg/mL (≈ 21.8 µM), an MIC ([2]; strain SEC079) of 4 µg/mL (≈ 10.9 µM) and an MIC ([2]; strain SEC080) of 4 µg/mL (≈ 10.9 µM). For the same compound, the MIC ([3]; BW25113, E. coli WT BW25113) was 0.6 µg/mL (≈ 1.63 µM), the MIC ([3]; BW25113, Table S11) was 0.6 µg/mL (≈ 1.63 µM) and the “NfsB activity (rate of compound conversion)” value (NfsB) was 6.26 µM/min. For the same compound, the MIC (E. coli ∆acrB JW0451-2; Escherichia coli, read-out: MIC acrB) was 0.3 µg/mL (≈ 0.817 µM) and the “MIC ∆acrB” value (E. coli ∆acrB JW0451-2; Table S11) was 0.3.
